Patent US8163509B2, “Biological markers predictive of anti-cancer response to insulin-like growth factor-1 receptor kinase inhibitors” (The Regents of the University of Colorado, A Body Corporate, priority 2008, dated 2012)
Like-named read-outs stand apart in the source and are kept apart here. Values belong to the compound of their own block, whether it stands above or below them.

Tests used:
Test in all cases: SRB proliferation assay, 72 h
Format in all cases: cell-based, human
[1] = system: LS513 CRC cell line
Method: (§1) FIG. 17: Results of cell proliferation assay on the panel of 27 CRC cell lines. Cell proliferation was evaluated by SRB following exposure to OSI-906 for 72 hours. Cells were plated at an optimized density in 96-well plates, incubated overnight at 37° C., and then exposed to a serial dilution of OSI-906. After 72 hours incubation, cells were fixed with trichloroacetic acid and an SRB was performed as described in materials and methods.
(§2) Cell Lines and Culture. […] human colon cancer cell lines, were obtained from American Type Culture Collection (Manassas, Va.). Cells were grown in RPMI medium supplemented with 10% fetal bovine serum, 1% non-essential amino acids, 1% penicillin/streptomycin and were maintained at 37° C. in an incubator under an atmosphere containing 5% CO2. The cells were routinely screened for the presence of mycoplasma (MycoAlert, Cambrex Bio Science, Baltimore, Md.) and were exposed to PQIP when they reached approximately 70% confluence.
(§3) Cytotoxicity and Combination Effects: HT29, HCT116, RKO, and LS513 CRC cell lines were exposed to 0-10 nM SN-38 (7-Ethyl-10-hydroxy-camptothecin), 0-10 μM Oxaliplatin, or 0-50 μM 5-Fluorouracil (5-FU) for 72 hours. HT29, HCT116, RKO, and LS513 CRC cell lines were exposed to PQIP in combination with SN-38, Oxaliplatin or 5-FU. In all combinations, cells were seeded in 96-well flat bottomed plates and left overnight. PQIP and chemotherapy were both added for 72 hours. The results of the combinations were analyzed by the Chou and Talalay method with Calcusyn (Biosoft, Ferguson, Mo.).
(§4) The CRC cell lines were treated with a range of concentrations of PQIP (from 0.05-5 μM) for 72 hours.
(§5) Combination treatment of PQIP with Chemotherapy in Colon Cancer Cell Lines: IGF1R is overexpressed in CRC and has been associated with resistance to chemotherapy. Therefore, we investigated the effect of PQIP in combination with standard chemotherapy for CRC. Four CRC cell lines including, two PQIP sensitive and two PQIP resistant, were chosen for combinations. HT29 and LS513 CRC cell lines were classified as sensitive, with IC50's around 0.3 μmol/L. HCT116 and RKO CRC cell lines were classified as resistant, with IC50>5 μmol/L. Concentrations were chosen based on single agent proliferation curves for each compound. Cells were exposed to PQIP and chemotherapy (SN38, oxaliplatin, or 5-Fluorouracil) concurrently for 72 h and combinations were assessed using the SRB assay. […] It thus appears that biomarkers which predict tumor cell sensitivity will also indicate which cells will respond in a synergistic manner to an IGF-1R kinase inhibitor (e.g. PQIP) and chemotherapy (i.e. SN38, oxaliplatin, or 5-Fluorouracil).
Cell Lines and Culture: Twenty-seven human colon cancer cell lines, were obtained from American Type Culture Collection (Manassas, Va.). The GEO cells were a generous gift from Dr. Fortunato Ciardiello (Cattedra di Oncologia Medica, Dipartimento Medico-Chirurgico di Internistica Clinica e Sperimentale “F Magrassi e A Lanzara,” Seconda Università degli Studi di Napoli, Naples). All cells except GEO were grown in RPMI medium supplemented with 10% fetal bovine serum, 1% non-essential amino acids, 1% penicillin/streptomycin and were maintained at 37° C. in an incubator under an atmosphere containing 5% CO2. GEO cells were grown in DMEM/F12 supplemented with 10% fetal bovine serum, 1% non-essential amino acids, 1% penicillin/streptomycin. […]

[2] = system: SW480 CRC cell line; conditions: for IC50: Homo sapiens, SW480
Method: as §1, with “Cell” for “FIG. 17: Results of cell proliferation assay on the panel of 27 CRC cell lines. Cell”
as §2
(§6) Multiple clones from the same transfection were pooled and grown under puromycin selection.
as §4
To characterize the potential functionality that the selected genes may play in the sensitivity or resistance to PQIP, resistant and sensitive CRC cell lines were stably transfected with specific shRNA, treated with increasing concentrations of PQIP and proliferation assays performed to observe, if when manipulated, these genes alter responsiveness (i.e. the S or R phenotype). […] Both of these transfected cell lines were assayed for proliferation as described above.
(§7) Cell Lines and Culture: Twenty-seven human colon cancer cell lines, were obtained from American Type Culture Collection (Manassas, Va.). The GEO cells were a generous gift from Dr. Fortunato Ciardiello (Cattedra di Oncologia Medica, Dipartimento Medico-Chirurgico di Internistica Clinica e Sperimentale “F Magrassi e A Lanzara,” Seconda Università degli Studi di Napoli, Naples). All cells except GEO were grown in RPMI medium supplemented with 10% fetal bovine serum, 1% non-essential amino acids, 1% penicillin/streptomycin and were maintained at 37° C. in an incubator under an atmosphere containing 5% CO2. GEO cells were grown in DMEM/F12 supplemented with 10% fetal bovine serum, 1% non-essential amino acids, 1% penicillin/streptomycin. The cells were routinely screened for the presence of mycoplasma (MycoAlert, Cambrex Bio Science, Baltimore, Md.) and were exposed to OSI-906 when they reached approximately 70% confluence. OSI-906 was provided by OSI Pharmaceuticals, (Boulder, Colo.) and prepared as a 10 mM stock solution in DMSO.
as §6

[3] = system: RKO CRC cell line; conditions: for IC50: Homo sapiens
Method: as §1, §2, §3, §4
as §5, with “5-Fluorouracil). […]” for “5-Fluorouracil).”

[4] = system: Colo201 CRC cell line; conditions: for IC50: Homo sapiens, COLO 201
Method: as §1, §2, §4, §7
(§8) Assessment of responsiveness of a panel of CRC cell lines to OSI-906. In order to assess CRC cell lines with differential sensitivity to OSI-906, a panel of 27 CRC cell lines were exposed to increasing concentrations of OSI-906 and proliferation was measured using the SRB assay as described previously (Pitts, T M, et al. Mol Cancer Ther 2009; 8(2):342-9). As depicted in FIG. 17 there was a wide range of sensitivity of the CRC cell lines to OSI-906, the majority of the cell lines failing to reach an IC50 up to 5 μmol/L, but a clear distinction could be made between the cell lines that were sensitive and the cell lines that were resistant.

[5] = system: SK-CO-1 CRC cell line; conditions: for IC50: Homo sapiens
Method: as §1, §2, §4, §7, §8

[6] = system: SW620 CRC cell line; conditions: for IC50: Homo sapiens
Method: as §1, §2, §4, §7, §8

[7] = 72 hours, read-out: IC50, proliferation, OSI-906 (SRB)
[8] = 72 hours, 0.05-5 μM, read-out: IC50, growth inhibition by PQIP (SRB)

IC50 ([2]; read-out: S/I/R to OSI-906): > 5 µM | IC50 [2, 7]: > 5 µM | IC50 ([4]; CoLo201, read-out: S/I/R to OSI-906): > 5 µM | IC50 ([4]; Colo201, 72 hours, read-out: IC50, proliferation, OSI-906 (SRB)): > 5 µM | IC50 [5, 7]: > 5 µM | IC50 ([5]; read-out: S/I/R to OSI-906): > 5 µM | IC50 ([6]; SW-620, 72 hours, read-out: IC50, proliferation, OSI-906 (SRB)): > 5 µM | IC50 ([6]; SW-620, read-out: S/I/R to OSI-906): > 5 µM
SMILES: C[C@]1(O)C[C@@H](c2nc(-c3ccc4ccc(-c5ccccc5)nc4c3)c3c(N)nccn32)C1 [OSI-906, cis-3-[8-amino-1-(2-phenyl-quinolin-7-yl)-imidazo[1,5-a]pyrazin-3-yl]-1-methyl-cyclobutanol]
IC50 ([1]; Homo sapiens, LS-513, 72 h, LS513, 72 hours, read-out: IC50, proliferation, OSI-906 (SRB)): ≤ 1.5 µM | IC50 ([1]; Homo sapiens, LS-513, LS513, read-out: S/I/R to OSI-906): ≤ 1.5 µM | shift in sensitivity to OSI-906 after MT2A shRNA knockdown ([2]; SW480 stably transfected with MT2A shRNA): did not exhibit the same “left shift” | IC50 [3, 7]: > 5 µM | IC50 ([3]; read-out: S/I/R to OSI-906): > 5 µM

IC50 [2, 8]: > 5 µM
SMILES: CN1CCN([C@H]2C[C@@H](c3nc(-c4ccc5ccc(-c6ccccc6)nc5c4)c4c(N)nccn43)C2)CC1 [PQIP, cis-3-[3-(4-Methyl-piperazin-1-yl)-cyclobutyl]1-(2-phenyl-quinolin-7-yl)-imidazo[1,5-a]pyrazin-8-ylamine]
IC50 ([1]; Homo sapiens, LS-513, 72 h, LS513, 72 hours, 0.05-5 μM, read-out: IC50, growth inhibition by PQIP (SRB)): < 0.5 µM | IC50 ([1]; LS513, 72 hours, 0.05-5 μM, read-out: IC50, growth inhibition by PQIP (SRB)): ~0.3 µM | combination index (CI) values, PQIP and chemotherapy ([1]; LS513, PQIP with SN38, oxaliplatin or 5-Fluorouracil concurrently 72 h, nearly all CI values, Chou and Talalay): 0.2-1.0 | shift in sensitivity to PQIP after shRNA knockdown ([2]; SW480 transfected with MT2A shRNA vs parental or scramble shRNA control): very modest if any left shift in sensitivity | shift in sensitivity to PQIP after shRNA knockdown ([2]; SW480 transfected with caldesmon shRNA vs parental or scramble shRNA control): no left shift in sensitivity | IC50 [3, 8]: > 5 µM | combination index (CI) values, PQIP and chemotherapy ([3]; PQIP with SN38, oxaliplatin or 5-Fluorouracil concurrently 72 h, nearly all combinations, Chou and Talalay): 0.6-1.4 | sensitivity to growth inhibition by PQIP (SRB) ([4]; Colo201, 72 hours, 0.05-5 μM): intermediate sensitivity | sensitivity to growth inhibition by PQIP (SRB) ([5]; 72 hours, 0.05-5 μM): intermediate sensitivity | sensitivity to growth inhibition by PQIP (SRB) ([6]; 72 hours, 0.05-5 μM): intermediate sensitivity
